The results in this text go back to PubChem BioAssay (NCI).

Holding throughout (assay): NCI tumour cell line growth inhibition, 48 h
Assay [1] concerns 786-0 renal.
Assay [2] deals with COLO 205 colon.
Assay [3] concerns HCT-116 colon.
Assay [4] deals with IGROV1 ovarian.
For assay [5], the system named is K-562 leukemia.
Assay [6] has as its system MDA-MB-435.
Assay [7] relates to OVCAR-4 ovarian.
The test system of assay [8] is SNB-75 CNS.
For assay [9], the system named is RPMI-8226 leukemia.
For assay [10], the system named is HL-60(TB) leukemia.

SMILES strings stand for the structures.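 How tested: cells in 96-well plates exposed to compound for 48 hours at five concentrations. GI50 is the concentration that inhibits growth by half. TGI: total growth inhibition.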

On to `N#CC(C#N)=C/C=C(\Sc1nc2ccccc2s1)c1ccc(Cl)cc1`, for which the GI50 in assay [1] is 3.43 µM; in [2] it was 3.26 µM; in [3], 2.14 µM; in [4], 4.87 µM; in assay [5], 1.45 µM; in assay [6], 2.86 µM. In addition, the GI50 in assay [7] is 16 µM; in assay [8], 1.31 µM. In addition, the TGI in [1] was 12 µM; in assay [2], above 27.7 µM; in [3], 5.78 µM; in assay [4] it was 12.5 µM; in [5] it was above 24.6 µM; in [6] it was 11.1 µM. The TGI turned out to be 47.5 µM in assay [7] and 8.82 µM in [8].
For `COc1ccc(CCN=C2NC(=O)/C(=C/c3ccc4ncccc4c3)S2)cc1`, the GI50 in [1], in assay [2], in assay [3], in assay [4], in assay [5] and in assay [6] was above 25 µM each time. Besides, the GI50 in [7], in assay [9] and in assay [8] was above 25 µM each time. The TGI in assay [1], in assay [2], in assay [3], in assay [4], in [5] and in assay [6] was above 25 µM each time. Also, the TGI in assay [7], in [9] and in assay [8] was above 25 µM throughout.
As for `O=C1CCC2(c3ccc(Cl)cc3)Nc3ccncc3N12` (stereo not given), the TGI in assay [1], in assay [3], in [10], in [4], in assay [5] and in assay [6] was above 10 µM each time. Also, the TGI in assay [7] and in [8] was above 10 µM throughout.
For the molecule `NC(=O)C(=Cn1c(=S)[nH]c2ccc([N+](=O)[O-])cc21)C(N)=O`, the TGI in [1], in assay [2], in assay [3], in assay [10], in assay [4] and in [6] was above 100 µM throughout. In addition, the TGI in assay [7] and in assay [8] was above 100 µM throughout.
As to `Cc1ccc(-n2c3nc(=O)[nH]c(=O)c-3cc3cc([N+](=O)[O-])ccc32)cc1`, the GI50 was 10.3 µM in assay [1]; 15.6 µM in assay [2]; 5.26 µM in assay [3]; 3.98 µM in assay [10]; 33.4 µM in assay [5]; 4.01 µM in assay [6]. Further, the figures for the GI50 in [7], in assay [9] and in [8] were 24.1 µM, 3.95 µM and 16.6 µM, respectively. Also, the TGI in [1] was 29.5 µM; in assay [2] it was 41.6 µM; in [3], 21 µM; in [10] it was above 100 µM; in assay [5], above 100 µM; in assay [6], 17.7 µM. Besides, the TGI in [7] was found to be 98.8 µM; in assay [9], 21.3 µM; in assay [8], 59.4 µM.
For `Nc1c(C(=O)Nc2cccc(C(F)(F)F)c2)sc2nc3c(cc12)CCCCC3`, the GI50 in [1] is 1.58 µM; in [2] it was 11.7 µM; in assay [3] it was 1.62 µM; in assay [10], 15.6 µM; in assay [5], 5.42 µM; in assay [6], 2.53 µM. Moreover, the GI50 was 1.21 µM in [7], 4.32 µM in [9] and 1.74 µM in [8]. The TGI in assay [1] is 3.13 µM; in [2] it was above 100 µM; in assay [3], 4.18 µM; in [10], above 100 µM; in assay [5] it was 29.7 µM; in assay [6], 63.1 µM. The TGI in assay [7] is 3.9 µM; in assay [9], 35.5 µM; in assay [8] it was 3.93 µM.
As for `CC1SC(c2ccc(F)cc2)N(NC(=O)C(O)c2ccccc2)C1=O` (stereo not given), the GI50 in [1], in assay [3], in [10], in assay [4], in assay [5] and in [6] was above 100 µM in each case. The GI50 in assay [7], in [9] and in assay [8] was above 100 µM each time. Moreover, the TGI in [1], in [3], in assay [10], in [4], in assay [5] and in [6] was above 100 µM throughout. In addition, the TGI in assay [7], in assay [9] and in assay [8] was above 100 µM each time.
As for `C=C1C(=O)O[C@H]2[C@H]1CC/C(COC(=O)NCc1ccc(Cn3c(=O)sn(-c4ccc(OC)cc4)c3=O)cc1)=C\CC[C@@]1(C)O[C@@H]21`, the GI50 was 2.05 µM in assay [1]; 1.85 µM in assay [2]; 1.93 µM in assay [3]; 2.12 µM in [10]; 2.85 µM in assay [4]; 1.83 µM in assay [6]. For the same molecule, the GI50 in assay [7] is 1.64 µM; in assay [9] it was 2.01 µM; in assay [8], 3.44 µM. Moreover, the TGI in [1] was 4.51 µM; in [2], 3.38 µM; in assay [3], 3.78 µM; in [10], 5.48 µM; in assay [4], 8.04 µM; in [6], 3.84 µM. Moreover, the values for the TGI in assay [7], in assay [9] and in assay [8] were 3.98 µM, 4.52 µM and 15.3 µM, respectively.
Consider `O=C(/C(=C/c1ccc([N+](=O)[O-])cc1)SCc1ccccc1)c1ccc(Cl)cc1`, for which the GI50 in assay [1] was 1.77 µM; in assay [2], 2.14 µM; in assay [10], 3.21 µM; in assay [4] it was 2.86 µM; in [5] it was 2.65 µM; in assay [6] it was 3.22 µM. The GI50 in [7] is 3.24 µM; in assay [9], 1.78 µM; in assay [8], 16 µM. Also, the TGI was 3.41 µM in [1]; 5.11 µM in [2]; 13.6 µM in assay [10]; 11.6 µM in assay [4]; above 100 µM in assay [5]; 11.4 µM in assay [6]. Further, the TGI in [7] was 13.3 µM; in assay [9] it was 5.03 µM; in assay [8], 35.7 µM.
